Structures can show the parent of a compound that is named as a salt.
System: guar explants
Assay: Agrobacterium-mediated transformation of guar cotyledon explants: selection, shoot harvest and GUS test
Format: cell-based, Cyamopsis tetragonoloba
Description: Cotyledons with about 2 mm of hypocotyl were excised from 12 day old seedlings. The cotyledons were then torn apart using a tweezers to create wound surfaces and placed in the Agrobacterium-suspension for 30 min.
Co-cultivation proceeded for 3 days at 25° C. and a 12 h/12 h day/night regime. After co-culture the explants were washed with 1/10 MS-medium, to which 100 mg/l carbenicillin, 100 mg/l cefotaxime and 1000 mg/l lysozyme had been added, 2-3 times for 45 min. while stirring at 100 rpm.
The explants were transferred to selection medium and incubated as above (25° C., 12 h day/12 h night).
After 4 weeks, shoots larger than 3 mm were harvested and transferred to shoot medium. After 10-14 days the shoots were tested for activity of the reporter gene β-glucuronidase (GUS), see below. GUS-positive shoots were transferred to fresh shoot medium while the GUS-negative shoots were discarded.
After the first harvest, explants (from which shoots had been harvested) were transferred to a second selection medium with a lower kanamycin concentration (50 mg/l) . After another 4 weeks shoots were harvested and GUS-tested. The positive shoots were transferred to fresh medium, while the negatives were discarded.
Tips of young leaves were excised and transferred to a multi-dish well containing 200 μl X-gluc solution. After incubation for 16 h at 35° C. the leaf tips were destained with 96% ethanol and the degree of blue stain was determined under a microscope.

[1] = thidiazuron 0.3 mg/l, 742 explants
[2] = thidiazuron 1.0 mg/l, 741 explants
[3] = thidiazuron 3.0 mg/l, 1522 explants
[4] = thidiazuron 4.5 mg/l, 797 explants
[5] = 0.1-2 mg/l PCIB during selection
[6] = kanamycin sulfate 125 mg/l in selection medium, 1600 explants, strain EHA 101
[7] = kanamycin sulfate 135 mg/l in selection medium, 1600 explants, strain EHA 101
[8] = kanamycin sulfate 145 mg/l in selection medium, 1600 explants, strain EHA 101

For benzyladenine purine [BAP], the “total number of regenerated shoots on 5 mg/l BAP compared with 1 mg/l” value (5 mg/l vs 1 mg/l BAP in selection medium) was “about twice as high”, the “No. of GUS+ shoots” value (BAP 1.0 mg/l, NiCl2, 6H2O 0 mg/l, 1200 explants, EHA 101) was 1 and the “No. of GUS+ shoots” value (BAP 5.0 mg/l, NiCl2, 6H2O 0 mg/l, 1200 explants, EHA 101) was 2.

O=C(Nc1ccccc1)Nc1cnns1 [Thidiazuron, thidiazuron] was tested, and the “subsequent cloning of the transgenic shoots” value was “beneficial for the subsequent cloning of the transgenic shoots”, the “increase of transformation frequencies” value (TDZ 0.3-3.0 mg/l vs no TDZ) was 1.5-1.8 fold and the “optimum TDZ concentrations in the selection media” value (selection media) was 0.3 to 3.0 mg/L. For the same compound, the “No. of GUS+ shoots” value [1] was 8, the “Transform. freq. (%)” value [1] was 1.08% and the “No. of GUS+ shoots” value [2] was 9. For the same compound, the “Transform. freq. (%)” value [2] was 1.21%, the “No. of GUS+ shoots” value [3] was 16 and the “Transform. freq. (%)” value [3] was 1.05%. For the same compound, the “No. of GUS+ shoots” value [4] was 5 and the “Transform. freq. (%)” value [4] was 0.63%.

In the case of O.O.O.O.O.O.[Cl][Ni][Cl] [NiCl2, 6H2O], the “No. of GUS+ shoots” value (NiCl2, 6H2O 1.0 mg/l with BAP 1.0 mg/l, 1200 explants, EHA 101) is reported as 4, the “No. of GUS+ shoots” value (NiCl2, 6H2O 1.0 mg/l with BAP 5.0 mg/l, 1200 explants, EHA 101) is reported as 4 and the higher transformation frequency (addition of 1 mg/l NiCl2, 6H2O) is reported as 2-4 times.

In the case of CC1(C)S[C@@H]2[C@H](NC(=O)C(C(=O)O)c3ccccc3)C(=O)N2[C@H]1C(=O)O (some centres unmarked) [Carbenicil., carbenicillin], the “No. of GUS+ shoots” value (carbenicillin 800 mg/l, cefotaxime 0, sulbactam 0, 800 explants, EHA 101) is reported as 2.

In the case of silver thiosulfate [STS], the “No. of GUS+ shoots” value (STS 2.5 μM, calculated per 1000 explants, EHA 101) is reported as 12, the “No. of GUS+ shoots” value (STS 5.0 μM, calculated per 1000 explants, EHA 101) is reported as 8 and the “No. of GUS+ shoots” value (STS 10.0 μM, calculated per 1000 explants, EHA 101) is reported as 7. The shoot quality (presence of STS vs absence) was “significantly improved shoot quality”.

In the case of CC(C)(Oc1ccc(Cl)cc1)C(=O)O [PCIB, 2-(p-chlorophenoxy)-2-methylpropionic acid], the amount of callus [5] is reported as “reduced the amount of callus significantly” and the “regeneration and number of transgenic shoots” value [5] is reported as “enhanced regeneration and the number of transgenic shoots”.

In the case of NC[C@H]1O[C@H](O[C@H]2[C@H](O)[C@@H](O[C@H]3O[C@H](CO)[C@@H](O)[C@H](N)[C@H]3O)[C@H](N)C[C@@H]2N)[C@H](O)[C@@H](O)[C@@H]1O [Kanamycin sulf., kanamycin sulfate], the regeneration frequencies (100 mg/l kanamycin or less) is reported as ~100%, the “No. of GUS+ shoots” value [6] is reported as 3 and the “No. of regenerated shoots” value [6] is reported as 21. For the same compound, the “No. of GUS+ shoots” value [7] was 5, the “No. of regenerated shoots” value [7] was 19 and the “No. of GUS+ shoots” value [8] was 8. The “No. of regenerated shoots” value [8] was 15, the “transgenic shoots found at the second harvest” value (second harvest, kanamycin concentration reduced) was “About 50%” and the “optimal kanamycin sulfate concentration in the selection medium” value (selection medium) was 145 mg/L.

In the case of CC1(C)[C@H](C(=O)O)N2C(=O)C[C@H]2S1(=O)=O [Sulbactam, sulbactam], the “No. of GUS+ shoots” value (sulbactam 100 mg/l with carbenicillin 50 mg/l and cefotaxime 50 mg/l, 800 explants, EHA 101) is reported as 9 and the “No. of GUS+ shoots” value (sulbactam 100 mg/l with carbenicillin 100 mg/l and cefotaxime 100 mg/l, 800 explants, EHA 101) is reported as 5.

From patent US20010034887A1, “Transformation of guar” (priority 1994, published 2001)
